# Measured values as given in patent publication US20140135217A1, “Use of Tetracyanodithiines as Fungicides” (BASF SE, priority 2011, published 2014).
# Tests used:
# Phakopsora pachyrhizi = assay: Glasshouse trial: protective control of soy bean rust on soy beans; format: in vivo; settings: soy bean seedlings sprayed with 1000 ppm, inoculated 1 day later, assessed after fourteen days; untreated plants 90% infected
# Protocol: The spray solutions were prepared in several steps: The stock solution were prepared: a mixture of acetone and/or dimethylsulfoxide and the wetting agent/emulsifier Wettol, which is based on ethoxylated alkylphenoles, in a relation (volume) solvent-emulsifier of 99 to 1 was added to 25 mg of the compound to give a total of 10 ml. Water was then added to total volume of 100 ml. This stock solution was diluted with the described solvent-emulsifier-water mixture to the given concentration. Leaves of pot-grown soy bean seedlings were sprayed to run-off with an aqueous suspension, containing the concentration of active ingredient or their mixture as described below. The plants were allowed to air-dry. […] Then the plants were inoculated with spores of Phakopsora pachyrhizi. […] The extent of fungal attack on the leaves was visually assessed as % diseased leaf area.
# Botryis cinerea = format: cell-based; settings: Botrci; vs compound-free control (100%); 405 nm, 7 days after inoculation; concentration not given
# Pyriculana oryzae = format: cell-based; settings: Pyrior; vs compound-free control (100%); 405 nm, 7 days after inoculation; concentration not given
# Septoria tritici = format: cell-based
# Alternaria solani = format: cell-based
# Pyrenophora teres = format: cell-based
# Rhynchosporium secalis = format: cell-based
# Rhizoctonia solani = format: cell-based
# Colletotrichum truncatum = format: cell-based
# Corynespora cassiicola = format: cell-based
# Septoria glycines = format: cell-based
# Cercospora sojina = format: cell-based
# Fusarium culmorum = format: cell-based
# Fusarium poae = format: cell-based
# Fusarium oxysporum = format: cell-based
# Cochliobolus miyabeanus = assay: Microtiter test, brown spot on rice (Cochmi); format: cell-based; settings: vs compound-free control (100%), 405 nm, 7 days after inoculation, concentration not given
# [1] = test system: Colletotrichum lagenarium; format: cell-based
# Phytophthora infestans = format: cell-based; settings: Phytin; pea juice-based or DDC medium; vs compound-free control (100%); 405 nm, 7 days after inoculation; concentration not given
smiles,measurement,setting,value
"N#CC1=C(C#N)SC(C#N)=C(C#N)S1 [compound I.A, 2,3,5,6-tetracyano-[1,4]dithiine]",infection (% diseased leaf area),Phakopsora pachyrhizi,4%
same,relative growth in % of the pathogen,Botryis cinerea,1%
same,relative growth in % of the pathogen,Pyriculana oryzae,0%
same,relative growth in % of the pathogen,Septoria tritici,0%
same,relative growth in % of the pathogen,Alternaria solani,0%
same,relative growth in % of the pathogen,Pyrenophora teres,0%
same,relative growth in % of the pathogen,Rhynchosporium secalis,0%
same,relative growth in % of the pathogen,Rhizoctonia solani,0%
same,relative growth in % of the pathogen,Colletotrichum truncatum,0%
same,relative growth in % of the pathogen,Corynespora cassiicola,1%
same,relative growth in % of the pathogen,Septoria glycines,0%
same,relative growth in % of the pathogen,Cercospora sojina,0%
same,relative growth in % of the pathogen,Fusarium culmorum,0%
same,relative growth in % of the pathogen,Fusarium poae,0%
same,relative growth in % of the pathogen,Fusarium oxysporum,0%
same,relative growth in % of the pathogen,Cochliobolus miyabeanus,0%
same,relative growth in % of the pathogen,[1],0%
same,relative growth in % of the pathogen,Phytophthora infestans,0%
